Earlier results on two compounds are cited in patent US5427767A, “Nanocrystalline magnetic iron oxide particles-method for preparation and use in medical diagnostics and therapy” (Institut fur Diagnostikforschung GmbH an der Freien …, priority 1991, dated 1995).

For data set [1] the following is noted: 0.47 T, water, 40° C.
The conditions of data set [2]: in vivo.

For the compound `O=C([O-])CN(CCN(CC(=O)[O-])CC(=O)O)CCN(CC(=O)[O-])CC(=O)O.[Gd+3]` [Gd-DTPA], in data set [1], the T1 relaxivity is given as ~4 1/mmol .phi.s and the T2 relaxivity is given as ~4 1/mmol .phi.s.
For dextran, in data set [2], the allergic potential entry is on record as “adverse allergic potential”.
